From ChEMBL document CHEMBL1201862, “PubChem BioAssay data set” (2004)
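In this assay, cells in 96-well plates receive the compound at five concentrations for 48 hours. Endpoints are linearly interpolated between the surrounding concentrations. The concentration for 50% growth inhibition is given as GI50.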 Active and inactive are the calls of the source. No stated cut-off is given here; in the data, active = GI50 up to about 1.1 µM and inactive = higher.

Legend:
Assay in all cases: NCI tumour cell line growth inhibition, 48 h
[1] = system: HL-60
[2] = system: CAKI-1
[3] = system: HCC 2998
[4] = system: NCI-H23
[5] = system: UO-31
[6] = system: Malme-3M
[7] = system: SK-MEL-28
[8] = system: SNB-75
[9] = system: U-251
[10] = system: LOX IMVI
[11] = system: IGROV-1
[12] = system: KM12
[13] = system: SF-268
[14] = system: ACHN
[15] = system: RPMI-8226
[16] = system: SNB-19

Measured: GI50

O=C(/C=C/c1ccccc1)Oc1cccc2cccnc12
inactive: [1] 3.01 µM | [2] 32 µM | [3] 43.2 µM | [4] 3.72 µM | [5] 6.35 µM | [6] 3.8 µM | [7] 16.4 µM | [8] 14.3 µM | [9] 4.71 µM | [10] 9.64 µM | [11] 11.2 µM | [12] 8.39 µM | [13] 2.23 µM | [14] 20.3 µM | [15] 4.38 µM | [16] 31.4 µM

COc1ccc(-c2c(N)[n+]([O-])c3cc(C)c(C)cc3[n+]2[O-])cc1OC
inactive: [1] 46.3 µM | [2] 37.8 µM | [3] > 100 µM | [4] 34 µM | [5] 54 µM | [6] > 100 µM | [7] 38.5 µM | [8] 36.4 µM | [9] 67.3 µM | [10] > 100 µM | [11] > 100 µM | [12] > 100 µM | [13] 43.8 µM | [14] > 100 µM | [15] > 100 µM | [16] 91.2 µM

CNS(=O)(=O)NN(C)S(=O)(=O)c1ccccc1
inactive: [1] > 100 µM | [2] > 100 µM | [3] > 100 µM | [4] > 100 µM | [5] > 100 µM | [6] > 100 µM | [8] > 100 µM | [9] > 100 µM | [10] > 100 µM | [11] > 100 µM | [12] > 100 µM | [13] > 100 µM | [14] > 100 µM | [15] > 100 µM | [16] > 100 µM

CN(CC(=O)O)S(=O)(=O)c1ccc2ccccc2c1
inactive: [1] > 100 µM | [2] > 100 µM | [3] > 100 µM | [4] > 100 µM | [5] > 100 µM | [6] > 100 µM | [7] > 100 µM | [8] > 100 µM | [9] > 100 µM | [10] > 100 µM | [11] > 100 µM | [12] > 100 µM | [13] > 100 µM | [14] > 100 µM | [15] > 100 µM | [16] > 100 µM

O=c1/c(=C/c2ccccc2[N+](=O)[O-])sc2nnc(-c3cccnc3)n12
inactive: [1] > 100 µM | [2] 1.43 µM | [3] > 100 µM | [4] > 100 µM | [5] > 100 µM | [6] > 100 µM | [7] > 100 µM | [8] > 100 µM | [10] > 100 µM | [11] > 100 µM | [12] > 100 µM | [13] > 100 µM | [14] > 100 µM | [15] > 100 µM | [16] 17.7 µM

[O-][n+]1c(-c2ccccc2)oc2ccccc21
inactive: [1] 5.28 µM | [2] > 41.1 µM | [3] 19.1 µM | [4] 11.3 µM | [5] 13.1 µM | [6] 13 µM | [7] 18.1 µM | [8] 16.7 µM | [9] 18.9 µM | [10] 3.07 µM | [11] 34.1 µM | [12] 17.3 µM | [13] 26.9 µM | [14] 15 µM | [15] > 22.6 µM | [16] 24.7 µM

[O-][S+]1c2ccccc2N=C(c2ccc3ccccc3c2)CC1C1=CC=CCC1 (stereo not given)
inactive: [1] 17.6 µM | [2] 16.1 µM | [3] 13.1 µM | [4] 14.6 µM | [5] 13.8 µM | [6] 27.4 µM | [7] 18.2 µM | [8] 17.9 µM | [10] 15.4 µM | [11] 13.2 µM | [12] 14.9 µM | [13] 25.8 µM | [14] 19 µM | [15] 8.75 µM | [16] > 10 µM

CCN(CC)CCNc1ccc2ncn3c4cc(O)ccc4c(=O)c1c23
inactive: [1] 2.84 µM | [2] 3.05 µM | [3] 3.84 µM | [4] 3.55 µM | [5] 5.71 µM | [6] 3.97 µM | [7] 4.73 µM | [8] 4.39 µM | [9] 1.53 µM | [10] 1.87 µM | [11] 4.25 µM | [12] 4.61 µM | [13] 2.09 µM | [14] 1.61 µM | [15] 2.17 µM | [16] 3.9 µM

O=C(CC1C(=O)Nc2ccccc2S1(=O)=O)Nc1cc(Cl)ccc1Cl (stereo not given)
inactive: [1] 11.8 µM | [2] 16.1 µM | [3] 20.5 µM | [4] 17.9 µM | [5] 15.6 µM | [6] 17.9 µM | [7] 16.6 µM | [8] 14.6 µM | [9] 10 µM | [10] 5.37 µM | [11] 13.1 µM | [13] 10.8 µM | [14] 17.2 µM | [15] 2.87 µM | [16] 15.5 µM
